Experimental data published in publication PMC9437215, “Synthesis and antibacterial activity evaluation of N (7) position-modified balofloxacins” (Frontiers in Chemistry, 2022).
≈ marks a conversion by molar mass, not a printed value. Where two headings read alike, the source gives them in different places.

Legend:
[1] = system: MRSA, P. aeruginosa, and E. coli; test: MIC and MBC values stated over the three strains together; type: cell-based; details: range over MIC and MBC and the three strains; read-out: MIC and MBC values
Method: (§1) The three strains of MRSA, P. aeruginosa, and E. coli used in this experiment were from clinical isolates, which were provided by the People’s Liberation Army 304 Hospital.
(§2) To evaluate the antibacterial activities of newly synthesized N (7) position modified fluoroquinolones, the minimum inhibitory (MIC) and bactericidal (MBC) concentrations of these compounds toward bacteria were measured.

[2] = system: MRSA; test: MIC and MBC determinations in vitro, MRSA; type: cell-based; details: MRSA clinical isolate; for MIC: 24 h culture, read-out: MIC; for MBC: solid medium 24 h
Method: as §1, §2

[3] = system: E. coli; test: MIC and MBC determinations in vitro, E. coli; type: cell-based; details: Escherichia coli, E. coli clinical isolate; for MIC: 24 h culture; for MBC: solid medium 24 h
Method: as §1, §2

[4] = system: P. aeruginosa; test: MIC and MBC determinations in vitro, P. aeruginosa; type: cell-based; details: Pseudomonas aeruginosa, P. aeruginosa clinical isolate; for MIC: 24 h culture, read-out: MIC; for MBC: solid medium 24 h, read-out: MBC
Method: as §1, §2

[5] = Staphylococcus aureus, MRSA, 24 h
[6] = Staphylococcus aureus, MRSA, 24 h, read-out: MBC

Row | SMILES | MIC [2, 5] | MIC [3] | MIC [4] | melting point | MBC [1] | MBC [2, 6] | MBC [3] | MBC [4] | MBC [2]
1 | CC(=O)NC1(c2c(F)cc3c(=O)c(C(=O)O)cn4c3c2OCC4C)CC1 (stereo not drawn) [Compound 2-g, 10-(1-Acetamidocyclopropyl)-9-fluoro-3-methyl-7-oxo-2,3-dihydro-7H-[1,4]oxazino[2,3,4-ij]quinoline-6-carboxylic acid] | 25 µg/mL (≈ 69.4 µM) | 25 µg/mL (≈ 69.4 µM) | 25 µg/mL (≈ 69.4 µM) | 273.1 to 274.1 °C | 25 to 50 µg/mL (≈ 69.4 to 139 µM) | 50 µg/mL (≈ 139 µM) | 50 µg/mL (≈ 139 µM) | 50 µg/mL (≈ 139 µM) | 
2 | CCCCCCCC(=O)N(C)C1CCCN(c2c(F)cc3c(=O)c(C(=O)O)cn(C4CC4)c3c2OC)C1 (stereo not drawn) [Compound 8-e, 1-Cyclopropyl-6-fluoro-8-methoxy-7-(3-(N-methyloctanamido)piperidin-1-yl)-4-oxo-1,4-dihydroquinoline-3-carboxylic acid] | 1.25 µg/mL (≈ 2.42 µM) | > 40 µg/mL | 1.25 µg/mL (≈ 2.42 µM) | 68.2 to 70 °C |  | 5 µg/mL (≈ 9.7 µM) | > 40 µg/mL | 5 µg/mL (≈ 9.7 µM) | 
3 | CCCCCCCCCC(=O)N(C)C1CCCN(c2c(F)cc3c(=O)c(C(=O)O)cn(C4CC4)c3c2OC)C1 (stereo not drawn) [Compound 10-e, 1-Cyclopropyl-6-fluoro-8-methoxy-7-(3-(N-methyldecanamido)piperidin-1-yl)-4-oxo-1,4-dihydroquinoline-3-carboxylic acid] | 5 µg/mL (≈ 9.2 µM) | > 40 µg/mL | 5 µg/mL (≈ 9.2 µM) | 65.2 to 68.1 °C |  | 20 µg/mL (≈ 36.8 µM) | > 40 µg/mL | 20 µg/mL (≈ 36.8 µM) | 
4 | COc1c(N2CCCC(N(C)C(=O)C3CCCC3)C2)c(F)cc2c(=O)c(C(=O)O)cn(C3CC3)c12 (stereo not drawn) [Compound 16-e, 1-Cyclopropyl-6-fluoro-8-methoxy-7-(3-(N-methylcyclopentanecarboxamido)piperidin-1-yl)-4-oxo-1,4-dihydroquinoline-3-carboxylic acid] | 0.313 µg/mL (≈ 0.645 µM) | 20 µg/mL (≈ 41.2 µM) | 0.313 µg/mL (≈ 0.645 µM) | 105.1 to 106.4 °C |  | 0.625 µg/mL (≈ 1.29 µM) | 40 µg/mL (≈ 82.4 µM) | 0.625 µg/mL (≈ 1.29 µM) | 
5 | COc1c(N2CCCC(N(C)C(=O)C(C)N)C2)c(F)cc2c(=O)c(C(=O)O)cn(C3CC3)c12 (stereo not drawn) [Compound 19-e, 7-(3-(2-Amino-N-methylpropanamido)piperidin-1-yl)-1-cyclopropyl-6-fluoro-8-methoxy-4-oxo-1,4-dihydroquinoline-3-carboxylic acid] | 1.56 µg/mL (≈ 3.39 µM) | 12.5 µg/mL (≈ 27.1 µM) | 0.39 µg/mL (≈ 0.847 µM) |  |  | 3.12 µg/mL (≈ 6.79 µM) | 25 µg/mL (≈ 54.3 µM) | 1.56 µg/mL (≈ 3.39 µM) | 
6 | COc1c(N2CCCC(N(C)C(=O)CN)C2)c(F)cc2c(=O)c(C(=O)O)cn(C3CC3)c12 (stereo not drawn) [Compound 20-e, 7-(3-(2-Amino-N-methylacetamido)piperidin-1-yl)-1-cyclopropyl-6-fluoro-8-methoxy-4-oxo-1,4-dihydroquinoline-3-carboxylic acid] | 25 µg/mL (≈ 56 µM) | 25 µg/mL (≈ 56 µM) | 0.78 µg/mL (≈ 1.75 µM) |  |  | 50 µg/mL (≈ 112 µM) | 50 µg/mL (≈ 112 µM) | 6.25 µg/mL (≈ 14 µM) | 
7 | COc1c(N2CCCC(N(C)C(=O)CC#N)C2)c(F)cc2c(=O)c(C(=O)O)cn(C3CC3)c12 (stereo not drawn) [Compound 22-e, 7-(3-(2-Cyano-N-methylacetamido)piperidin-1-yl)-1-cyclopropyl-6-fluoro-8-methoxy-4-oxo-1,4-dihydroquinoline-3-carboxylic acid] | 0.39 µg/mL (≈ 0.854 µM) | 0.78 µg/mL (≈ 1.71 µM) | 0.78 µg/mL (≈ 1.71 µM) | 184.8 to 186.2 °C |  | 0.78 µg/mL (≈ 1.71 µM) | 1.56 µg/mL (≈ 3.42 µM) | 1.56 µg/mL (≈ 3.42 µM) | 
8 | COc1c(N2CC3CCCN(C(=O)Cn4cncn4)C3C2)c(F)cc2c(=O)c(C(=O)O)cn(C3CC3)c12 (stereo not drawn) [Compound f-1, 7-(1-(2-(1H-1,2,4-Triazol-1-yl)acetyl)octahydro-6H-pyrrolo[3,4-b]pyridin-6-yl)-1-cyclopropyl-6-fluoro-8-methoxy-4-oxo-1,4-dihydroquinoline-3-carboxylic acid] | 0.313 µg/mL (≈ 0.613 µM) | 0.625 µg/mL (≈ 1.22 µM) | 1.25 µg/mL (≈ 2.45 µM) |  |  | 2.5 µg/mL (≈ 4.9 µM) | 2.5 µg/mL (≈ 4.9 µM) | 2.5 µg/mL (≈ 4.9 µM) | 

The next compounds have a lower MIC [2, 5] than those just listed; values first:

Row | MIC [2, 5] | MIC [3] | MIC [4] | melting point | SMILES | MBC [1] | MBC [2, 6] | MBC [3] | MBC [4] | MBC [2]
9 | 0.156 µg/mL (≈ 0.49 µM) | 0.156 µg/mL (≈ 0.49 µM) | 0.313 µg/mL (≈ 0.983 µM) |  | C[C@H]1COc2c(C3(N)CC3)c(F)cc3c(=O)c(C(=O)O)cn1c23 [Compound 1g, pazufloxacin, reference compound] | 0.156 to 0.625 µg/mL (≈ 0.49 to 1.96 µM) | 0.313 µg/mL (≈ 0.983 µM) | 0.313 µg/mL (≈ 0.983 µM) | 0.625 µg/mL (≈ 1.96 µM) | 
10 | 0.039 µg/mL (≈ 0.0852 µM) | 10 µg/mL (≈ 21.9 µM) | 0.078 µg/mL (≈ 0.17 µM) | 104.6 to 106.5 °C | COc1c(N2CCCC(N(C)C(=O)C3CC3)C2)c(F)cc2c(=O)c(C(=O)O)cn(C3CC3)c12 (stereo not drawn) [Compound 11-e, 1-Cyclopropyl-6-fluoro-8-methoxy-7-(3-(N-methylcyclopropanecarboxamido)piperidin-1-yl)-4-oxo-1,4-dihydroquinoline-3-carboxylic acid] |  | 0.078 µg/mL (≈ 0.17 µM) | 20 µg/mL (≈ 43.7 µM) | 0.156 µg/mL (≈ 0.341 µM) | 
11 | 0.078 µg/mL (≈ 0.161 µM) | 10 µg/mL (≈ 20.7 µM) | 0.078 µg/mL (≈ 0.161 µM) | 167.5 to 168.7 °C | COc1c(N2CCCC(N(C)C(=O)c3ccco3)C2)c(F)cc2c(=O)c(C(=O)O)cn(C3CC3)c12 (stereo not drawn) [Compound 13-e, 1-Cyclopropyl-6-fluoro-8-methoxy-7-(3-(N-methylfuran-2-carboxamido)piperidin-1-yl)-4-oxo-1,4-dihydroquinoline-3-carboxylic acid] |  | 0.156 µg/mL (≈ 0.323 µM) | 20 µg/mL (≈ 41.4 µM) | 0.156 µg/mL (≈ 0.323 µM) | 
12 | 0.078 µg/mL (≈ 0.16 µM) | 20 µg/mL (≈ 41 µM) | 0.156 µg/mL (≈ 0.32 µM) | 140.2 to 141.2 °C | COc1c(N2CCCC(N(C)C(=O)C3CCCO3)C2)c(F)cc2c(=O)c(C(=O)O)cn(C3CC3)c12 (stereo not drawn) [Compound 14-e, 1-Cyclopropyl-6-fluoro-8-methoxy-7-(3-(N-methyltetrahydrofuran-2-carboxamido)piperidin-1-yl)-4-oxo-1,4-dihydroquinoline-3-carboxylic acid] |  | 0.156 µg/mL (≈ 0.32 µM) | 20 µg/mL (≈ 41 µM) | 0.313 µg/mL (≈ 0.642 µM) | 
13 | 0.078 µg/mL (≈ 0.193 µM) | 0.625 µg/mL (≈ 1.55 µM) | 0.313 µg/mL (≈ 0.776 µM) |  | COc1c(N2CCCC(N(C)C)C2)c(F)cc2c(=O)c(C(=O)O)cn(C3CC3)c12 (stereo not drawn) [Compound 21-e, 1-Cyclopropyl-7-(3-(dimethylamino)piperidin-1-yl)-6-fluoro-8-methoxy-4-oxo-1,4-dihydroquinoline-3-carboxylic acid] |  | 0.31 µg/mL (≈ 0.768 µM) | 0.625 µg/mL (≈ 1.55 µM) | 0.313 µg/mL (≈ 0.776 µM) | 0.313 µg/mL (≈ 0.776 µM)
14 | 0.156 µg/mL (≈ 0.313 µM) | 0.156 µg/mL (≈ 0.313 µM) | 0.156 µg/mL (≈ 0.313 µM) |  | COc1c(N2CCCC(N(C)C(=O)Cn3cncn3)C2)c(F)cc2c(=O)c(C(=O)O)cn(C3CC3)c12 (stereo not drawn) [Compound e-1, 1-Cyclopropyl-6-fluoro-8-methoxy-7-(3-(N-methyl-2-(1H-1,2,4-triazol-1-yl)acetamido)piperidin-1-yl)-4-oxo-1,4-dihydroquinoline-3-carboxylic acid] |  | 0.312 µg/mL (≈ 0.626 µM) | 0.313 µg/mL (≈ 0.628 µM) | 0.313 µg/mL (≈ 0.628 µM) | 0.313 µg/mL (≈ 0.628 µM)
